Laboratory results from ChEMBL document CHEMBL4831559, “Antitarget Selectivity and Tolerability of Novel Pyrrolo[2,3-d]pyrimidine RET Inhibitors” (ACS Med Chem Lett, 2021).
Calls of active or inactive are those of the source. The rule behind the calls is not given here.

Tests used:
[1] = tested on: BaF3; experiment: cells; conditions: Mus musculus, BaF3, 48 h
Description: Antiproliferative activity against mouse BaF3 cells assessed as reduction in cell proliferation incubated for 48 hrs by cell proliferation assay

[2] = molecular target: Bcr/Abl fusion protein (Homo sapiens, UniProt P00519); experiment: Inhibition of BCR-ABL (unknown origin) expressed in mouse BaF3 cells assessed as reduction in cell proliferation incubated for 48 hrs by cell proliferation assay; type: cell-based
Chain of Bcr/Abl fusion protein (P00519 whole entry, the tested form may be a part): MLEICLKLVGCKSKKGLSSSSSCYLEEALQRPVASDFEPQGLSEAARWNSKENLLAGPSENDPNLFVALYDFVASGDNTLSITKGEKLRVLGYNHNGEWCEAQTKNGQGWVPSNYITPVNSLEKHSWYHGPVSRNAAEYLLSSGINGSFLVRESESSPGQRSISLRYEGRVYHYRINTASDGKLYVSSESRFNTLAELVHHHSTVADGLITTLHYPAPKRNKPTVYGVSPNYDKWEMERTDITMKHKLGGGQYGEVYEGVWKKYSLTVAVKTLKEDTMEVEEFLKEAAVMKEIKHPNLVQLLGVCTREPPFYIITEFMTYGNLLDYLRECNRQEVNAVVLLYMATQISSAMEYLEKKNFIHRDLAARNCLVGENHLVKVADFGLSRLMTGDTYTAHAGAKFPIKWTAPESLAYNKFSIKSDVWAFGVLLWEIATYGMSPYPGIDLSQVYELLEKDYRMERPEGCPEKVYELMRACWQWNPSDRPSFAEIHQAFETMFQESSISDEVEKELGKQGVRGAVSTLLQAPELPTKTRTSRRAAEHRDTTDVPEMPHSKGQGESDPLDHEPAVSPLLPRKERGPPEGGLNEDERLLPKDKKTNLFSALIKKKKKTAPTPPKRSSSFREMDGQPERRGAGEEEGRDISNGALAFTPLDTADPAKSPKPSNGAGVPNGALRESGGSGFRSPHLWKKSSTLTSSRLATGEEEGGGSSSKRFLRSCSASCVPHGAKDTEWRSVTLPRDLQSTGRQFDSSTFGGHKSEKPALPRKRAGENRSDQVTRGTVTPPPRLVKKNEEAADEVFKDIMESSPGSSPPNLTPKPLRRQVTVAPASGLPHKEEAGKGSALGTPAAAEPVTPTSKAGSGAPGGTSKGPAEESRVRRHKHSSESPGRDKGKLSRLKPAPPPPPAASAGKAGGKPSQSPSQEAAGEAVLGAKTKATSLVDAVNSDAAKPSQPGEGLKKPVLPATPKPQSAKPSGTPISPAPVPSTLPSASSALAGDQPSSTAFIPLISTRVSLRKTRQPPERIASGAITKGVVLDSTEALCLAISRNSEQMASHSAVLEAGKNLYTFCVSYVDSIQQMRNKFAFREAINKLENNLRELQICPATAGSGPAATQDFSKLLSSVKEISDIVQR
Chain of Bcr/Abl fusion protein (P11274 whole entry, further chain, the tested form may be a part): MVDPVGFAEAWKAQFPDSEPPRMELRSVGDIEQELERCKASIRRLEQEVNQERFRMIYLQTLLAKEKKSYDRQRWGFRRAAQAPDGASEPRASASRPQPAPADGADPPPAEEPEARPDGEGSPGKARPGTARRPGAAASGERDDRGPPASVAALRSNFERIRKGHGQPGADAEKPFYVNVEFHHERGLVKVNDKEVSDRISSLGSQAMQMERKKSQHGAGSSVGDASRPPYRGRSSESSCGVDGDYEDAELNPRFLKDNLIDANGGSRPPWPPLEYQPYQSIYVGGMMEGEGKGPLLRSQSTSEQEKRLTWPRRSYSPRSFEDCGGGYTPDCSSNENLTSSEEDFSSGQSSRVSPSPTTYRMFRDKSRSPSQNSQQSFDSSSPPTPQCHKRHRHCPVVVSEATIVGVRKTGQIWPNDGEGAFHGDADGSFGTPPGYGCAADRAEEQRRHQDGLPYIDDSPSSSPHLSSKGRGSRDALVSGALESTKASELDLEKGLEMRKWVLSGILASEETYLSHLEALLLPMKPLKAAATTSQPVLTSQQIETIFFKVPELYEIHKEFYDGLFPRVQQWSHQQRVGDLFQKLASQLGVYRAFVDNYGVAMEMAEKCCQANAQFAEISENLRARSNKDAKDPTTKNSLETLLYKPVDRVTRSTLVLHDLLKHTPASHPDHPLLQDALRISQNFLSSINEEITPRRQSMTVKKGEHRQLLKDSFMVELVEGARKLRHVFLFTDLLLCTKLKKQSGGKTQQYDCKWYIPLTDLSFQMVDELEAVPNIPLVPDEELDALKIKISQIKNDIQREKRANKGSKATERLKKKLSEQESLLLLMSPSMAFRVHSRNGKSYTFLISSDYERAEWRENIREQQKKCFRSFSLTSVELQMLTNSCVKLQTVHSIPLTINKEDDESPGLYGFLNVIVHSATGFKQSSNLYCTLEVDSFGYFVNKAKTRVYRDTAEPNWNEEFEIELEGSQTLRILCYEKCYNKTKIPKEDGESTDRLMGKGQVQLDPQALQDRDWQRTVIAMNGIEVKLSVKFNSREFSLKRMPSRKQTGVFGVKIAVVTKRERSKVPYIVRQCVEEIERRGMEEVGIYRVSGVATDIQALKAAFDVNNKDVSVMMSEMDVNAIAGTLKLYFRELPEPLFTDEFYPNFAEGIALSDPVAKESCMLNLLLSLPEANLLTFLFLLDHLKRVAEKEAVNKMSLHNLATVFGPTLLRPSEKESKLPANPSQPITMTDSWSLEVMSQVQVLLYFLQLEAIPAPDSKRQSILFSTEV

[3] = Oral bioavailability in BALB/c mouse at 10 mg/kg measured by LC-MS/MS analysis; type: ADME, organism-based; conditions: in vivo
[4] = AUC in BALB/c mouse at 10 mg/kg, po measured by LC-MS/MS analysis; type: ADME, organism-based; design: dose 10 mg/kg; conditions: in vivo
[5] = Plasma protein binding in mouse at 5 uM measured after 16 hrs by LC-MS/MS based rapid equilibrium dialysis analysis; type: ADME, cell-free; conditions: read-out: PPB (converted)
[6] = molecular target: T1, Voltage-gated inwardly rectifying potassium channel KCNH2 (Homo sapiens, UniProt Q12809); experiment: Inhibition of human ERG expressed in CHO cells by manual patch clamp assay; type: cell-based
T1 sequence (Q12809 whole entry): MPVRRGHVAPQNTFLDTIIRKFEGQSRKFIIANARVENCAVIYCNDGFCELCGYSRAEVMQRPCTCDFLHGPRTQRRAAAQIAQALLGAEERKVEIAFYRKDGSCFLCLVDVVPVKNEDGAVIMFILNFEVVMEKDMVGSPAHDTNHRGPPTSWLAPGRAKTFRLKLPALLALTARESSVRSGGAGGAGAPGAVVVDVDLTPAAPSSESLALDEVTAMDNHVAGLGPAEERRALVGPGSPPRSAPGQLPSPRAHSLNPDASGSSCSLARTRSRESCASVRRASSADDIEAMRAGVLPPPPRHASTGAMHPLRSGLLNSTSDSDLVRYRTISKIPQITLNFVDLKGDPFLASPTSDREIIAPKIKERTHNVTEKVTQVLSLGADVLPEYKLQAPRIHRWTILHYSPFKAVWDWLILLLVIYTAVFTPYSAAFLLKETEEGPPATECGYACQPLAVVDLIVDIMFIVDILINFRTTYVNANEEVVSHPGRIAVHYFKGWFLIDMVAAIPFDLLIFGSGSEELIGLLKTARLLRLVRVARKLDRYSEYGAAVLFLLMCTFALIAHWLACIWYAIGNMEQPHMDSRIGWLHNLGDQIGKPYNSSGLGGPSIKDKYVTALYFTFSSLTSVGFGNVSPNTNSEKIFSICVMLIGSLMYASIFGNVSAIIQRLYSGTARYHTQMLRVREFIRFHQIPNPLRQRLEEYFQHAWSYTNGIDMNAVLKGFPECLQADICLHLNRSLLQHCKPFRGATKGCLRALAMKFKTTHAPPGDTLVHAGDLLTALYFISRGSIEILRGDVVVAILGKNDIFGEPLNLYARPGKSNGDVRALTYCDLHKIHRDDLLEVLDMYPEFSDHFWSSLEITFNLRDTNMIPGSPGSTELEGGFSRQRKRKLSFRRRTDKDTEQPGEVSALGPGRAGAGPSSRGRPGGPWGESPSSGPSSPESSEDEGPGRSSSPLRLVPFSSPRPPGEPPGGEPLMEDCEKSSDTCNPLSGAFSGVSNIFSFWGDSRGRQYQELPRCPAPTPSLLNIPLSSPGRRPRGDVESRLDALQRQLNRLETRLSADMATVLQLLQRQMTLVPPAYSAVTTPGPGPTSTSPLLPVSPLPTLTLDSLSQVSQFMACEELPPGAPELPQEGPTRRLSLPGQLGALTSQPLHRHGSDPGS

[7] = fAUC in nude mouse xenografted with KIF5B-RET BaF3 cells xenografted at 10 mg/kg, po qd for 14 days; type: ADME, organism-based; conditions: in vivo, 336 h, time 14 day
[8] = tested on: Mus musculus; experiment: Antitumor activity against mouse KIF5B-RET BaF3 cells xenografted in nude mouse assessed as tumor regression at 10 mg/kg, po qd measured after 16 days; type: functional, organism-based; conditions: time 16.0 day
[9] = Clearance in BALB/c mouse at 2 mg/kg, iv measured by LC-MS/MS analysis; type: ADME, organism-based; conditions: in vivo
[10] = Volume of distribution at steady state in BALB/c mouse at 2 mg/kg, iv measured by LC-MS/MS analysis; type: ADME, organism-based; conditions: in vivo, read-out: Vdss
[11] = AUC in BALB/c mouse at 2 mg/kg, iv measured by LC-MS/MS analysis; type: ADME, organism-based; design: dose 2 mg/kg; conditions: in vivo
[12] = Toxicity in nude mouse transfected with mouse KIF5B-RET BaF3 cells assessed as adverse effect at 10 mg/kg, po qd measured after 14 days; type: organism-based; conditions: in vivo, 336 h, time 14 day
[13] = Cmax in BALB/c mouse at 2 mg/kg, iv measured by LC-MS/MS analysis; type: ADME, organism-based; design: route intravenous, dose 2 mg/kg; conditions: in vivo
[14] = Cmax in nude mouse xenografted with KIF5B-RET BaF3 cells xenografted at 10 mg/kg, po qd for 14 days; type: ADME, organism-based; design: route oral, time 14 day, dose 10 mg/kg; conditions: in vivo
[15] = Cmax in BALB/c mouse at 10 mg/kg, po measured by LC-MS/MS analysis; type: ADME, organism-based; design: route oral, dose 10 mg/kg; conditions: in vivo
[16] = Half life in BALB/c mouse at 10 mg/kg, po measured by LC-MS/MS analysis; type: ADME, organism-based; conditions: in vivo
[17] = Half life in BALB/c mouse at 2 mg/kg, iv measured by LC-MS/MS analysis; type: ADME, organism-based; conditions: in vivo
[18] = fCmax in nude mouse xenografted with KIF5B-RET BaF3 cells xenografted at 10 mg/kg, po qd for 14 days; type: ADME, organism-based; conditions: in vivo, 336 h, time 14 day
[19] = AUC in nude mouse xenografted with KIF5B-RET BaF3 cells xenografted at 10 mg/kg, po qd for 14 days; type: ADME, organism-based; design: time 14 day, dose 10 mg/kg; conditions: in vivo
[20] = molecular target: T1, Voltage-gated inwardly rectifying potassium channel KCNH2; experiment: Displacement of [3H]-dofetilide from human ERG expressed in CHO cell after 90 mins by microbeta liquid scintillation counting method; type: cell-based
[21] = AUC in nude mouse xenografted with KIF5B-RET BaF3 cells xenografted at 3 mg/kg, po qd for 14 days; type: ADME, organism-based; design: time 14 day, dose 3 mg/kg; conditions: in vivo
[22] = Toxicity in nude mouse transfected with mouse KIF5B-RET BaF3 cells assessed as adverse effect at 30 mg/kg, po qd measured after 14 days; type: organism-based; conditions: in vivo, 336 h, time 14 day
[23] = fCmax in nude mouse xenografted with KIF5B-RET BaF3 cells xenografted at 3 mg/kg, po qd for 4 days; conditions: in vivo, 96 h
[24] = tested on: BaF3; experiment: Antitumor activity against mouse KIF5B-RET BaF3 cells xenografted in nude mouse assessed as tumor regression at 3 mg/kg, po qd measured after 12 days; conditions: time 12.0 day
[25] = fAUC in nude mouse xenografted with KIF5B-RET BaF3 cells xenografted at 3 mg/kg, po qd for 4 days; conditions: in vivo, 96 h
[26] = Cmax nude mouse xenografted with KIF5B-RET BaF3 cells xenografted at 3 mg/kg, po qd for 14 days; type: ADME, organism-based; design: route oral, time 14 day, dose 3 mg/kg; conditions: in vivo
[27] = fCmax in nude mouse xenografted with KIF5B-RET BaF3 cells xenografted at 60 mg/kg, po qd for 14 days; type: ADME, organism-based; conditions: in vivo, 336 h, time 14 day
[28] = tested on: BaF3; experiment: Antitumor activity against mouse KIF5B-RET BaF3 cells xenografted in nude mouse assessed as tumor regression at 60 mg/kg, po qd measured after 14 days; type: functional, organism-based; conditions: time 14.0 day
[29] = Toxicity in nude mouse transfected with mouse KIF5B-RET BaF3 cells assessed as adverse effect at 10 to 60 mg/kg, po qd measured after 14 days; type: organism-based; conditions: in vivo, 336 h, dose 10-60 mg/kg, time 14 day
[30] = Toxicity in nude mouse transfected with mouse KIF5B-RET BaF3 cells assessed as body weight loss at 10 to 60 mg/kg, po qd measured after 14 days; type: organism-based; conditions: in vivo, 336 h, dose 10-60 mg/kg, time 14 day
[31] = AUC in nude mouse xenografted with KIF5B-RET BaF3 cells xenografted at 60 mg/kg, po qd for 14 days; type: ADME, organism-based; design: time 14 day, dose 60 mg/kg; conditions: in vivo
[32] = fAUC in nude mouse xenografted with KIF5B-RET BaF3 cells xenografted at 60 mg/kg, po qd for 14 days; type: ADME, organism-based; conditions: in vivo, 336 h, time 14 day
[33] = Cmax in nude mouse xenografted with KIF5B-RET BaF3 cells xenografted at 60 mg/kg, po qd for 14 days; type: ADME, organism-based; design: route oral, time 14 day, dose 60 mg/kg; conditions: in vivo
[34] = molecular target: Proto-oncogene tyrosine-protein kinase receptor Ret (Mus musculus) (UniProt P35546); experiment: In vivo inhibition of RET phosphorylation in mouse KIF5B-RET BaF3 cells transfected in nude mouse […] at 60 mg/kg, po qd measured after 5 hrs; type: functional, organism-based
[35] = Clearance in BALB/c mouse at 3.4 mg/kg, iv measured by LC-MS/MS analysis; type: ADME, organism-based; conditions: in vivo
[36] = molecular target: Proto-oncogene tyrosine-protein kinase receptor Ret (Homo sapiens, UniProt P07949); experiment: Inhibition of RET (658 to 1072) (unknown origin) by HTRF assay
Chain of Proto-oncogene tyrosine-protein kinase receptor Ret (P07949 whole entry): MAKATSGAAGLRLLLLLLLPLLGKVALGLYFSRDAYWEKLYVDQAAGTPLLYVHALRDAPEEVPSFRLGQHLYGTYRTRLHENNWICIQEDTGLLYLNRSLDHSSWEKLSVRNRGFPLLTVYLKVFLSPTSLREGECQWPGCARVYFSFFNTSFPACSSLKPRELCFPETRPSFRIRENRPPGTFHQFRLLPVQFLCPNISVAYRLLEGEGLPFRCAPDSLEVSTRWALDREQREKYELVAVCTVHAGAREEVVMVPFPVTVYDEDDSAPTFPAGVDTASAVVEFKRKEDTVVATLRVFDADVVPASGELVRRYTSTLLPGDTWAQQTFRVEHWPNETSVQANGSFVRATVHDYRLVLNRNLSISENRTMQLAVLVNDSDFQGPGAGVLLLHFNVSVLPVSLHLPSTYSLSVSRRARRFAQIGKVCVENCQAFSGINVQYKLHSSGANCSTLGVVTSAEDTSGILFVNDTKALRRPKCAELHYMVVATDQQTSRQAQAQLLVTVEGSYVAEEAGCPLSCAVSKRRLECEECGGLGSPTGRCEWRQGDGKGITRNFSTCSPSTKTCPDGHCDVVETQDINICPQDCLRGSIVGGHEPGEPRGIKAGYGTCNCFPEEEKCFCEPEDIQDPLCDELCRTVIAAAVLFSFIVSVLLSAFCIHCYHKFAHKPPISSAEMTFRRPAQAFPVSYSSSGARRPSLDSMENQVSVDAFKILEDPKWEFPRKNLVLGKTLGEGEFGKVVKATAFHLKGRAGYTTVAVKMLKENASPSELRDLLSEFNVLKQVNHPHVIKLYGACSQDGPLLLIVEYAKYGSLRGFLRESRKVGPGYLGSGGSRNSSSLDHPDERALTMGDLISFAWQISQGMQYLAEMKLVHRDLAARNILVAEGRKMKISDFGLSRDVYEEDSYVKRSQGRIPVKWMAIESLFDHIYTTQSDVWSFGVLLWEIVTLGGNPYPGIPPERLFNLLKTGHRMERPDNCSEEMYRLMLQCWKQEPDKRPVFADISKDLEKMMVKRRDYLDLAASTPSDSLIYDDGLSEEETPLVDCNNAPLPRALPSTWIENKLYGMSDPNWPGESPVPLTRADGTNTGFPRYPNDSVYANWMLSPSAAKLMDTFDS

[37] = Cmax in BALB/c mouse at 3.4 mg/kg, iv measured by LC-MS/MS analysis; type: ADME, organism-based; design: route intravenous, dose 3.4 mg/kg; conditions: in vivo
[38] = AUC in BALB/c mouse at 3.4 mg/kg, iv measured by LC-MS/MS analysis; type: ADME, organism-based; design: dose 3.4 mg/kg; conditions: in vivo
[39] = Half life in BALB/c mouse at 3.4 mg/kg, iv measured by LC-MS/MS analysis; type: ADME, organism-based; conditions: in vivo
[40] = Oral bioavailability in BALB/c mouse at 13.5 mg/kg measured by LC-MS/MS analysis; type: ADME, organism-based; conditions: in vivo
[41] = Volume of distribution at steady state in BALB/c mouse at 3.4 mg/kg, iv measured by LC-MS/MS analysis; type: ADME, organism-based; conditions: in vivo, read-out: Vdss
[42] = AUC in BALB/c mouse at 13.5 mg/kg, po measured by LC-MS/MS analysis; type: ADME, organism-based; design: dose 13.5 mg/kg; conditions: in vivo
[43] = Half life in BALB/c mouse at 13.5 mg/kg, po measured by LC-MS/MS analysis; type: ADME, organism-based; conditions: in vivo
[44] = Cmax in BALB/c mouse at 13.5 mg/kg, po measured by LC-MS/MS analysis; type: ADME, organism-based; design: route oral, dose 13.5 mg/kg; conditions: in vivo
[45] = tested on: Mus musculus; experiment: Antitumor activity against mouse KIF5B-RET BaF3 cells xenografted in nude mouse assessed as tumor regression at 30 mg/kg, po qd measured after 16 days; type: functional, organism-based; conditions: time 16.0 day
[46] = tested on: BaF3; experiment: Antitumor activity against mouse KIF5B-RET BaF3 cells xenografted in nude mouse assessed as tumor regression at 1 to 10 mg/kg, po qd measured after 16 days; type: functional, organism-based; conditions: dose 1-10 mg/kg, time 16.0 day
[47] = tested on: BaF3; conditions: Mus musculus, dose 10.0 mg/kg, time 21.0 day

Row | SMILES | IC50 [1] [µM] | bioavailability [3] [%] | AUC [4] [µM·h] | fraction unbound at 16 h, 5 µM [5] | clearance [9] [mL/min/kg] | Vd [10] [L/kg] | AUC [11] [µM·h] | Cmax [13] [µM] | Cmax [15] [µM] | half-life [16] [h] | half-life [17] [h] | further results
1 | CC(=O)N1CCN([C@H]2C[C@@H](n3cc(-c4ccc(Cl)c(O)c4)c4c(N)ncnc43)C2)CC1 | 3.7 |  |  |  |  |  |  |  |  |  |  | 
2 | Nc1ncnc2c1c(-c1cccc(O)c1)cn2[C@H]1C[C@@H](CO)C1 |  |  |  |  |  |  |  |  |  |  |  | IC50 [2]: 0.043 µM
3 | COC(=O)N[C@H]1CC[C@@H](n2cc(-c3ccc(Cl)c(N)c3)c3c(N)ncnc32)CC1 | 4.6 | 60 | 120 | 0.031 | 1.9 | 0.37 | 41 | 14 | 10 | 3.7 | 3 | IC50 [6]: 5.3 µM; fAUC [7]: 1.6 µM·h; Activity [8]: Active; Activity [12]: Non-Toxic; Cmax [14]: 8.3 µM; fCmax [18]: 0.26 µM; AUC at 336 h [19]: 50 µM·h; IC50 [20]: 25 µM
4 | Nc1ncnc2c1c(-c1cccc(O)c1)cn2C1CCCC1 | 1.6 |  |  |  |  |  |  |  |  |  |  | 
5 | CC(=O)N1CCN([C@H]2C[C@@H](n3cc(-c4cccc(O)c4)c4c(N)ncnc43)C2)CC1 | > 10 |  |  |  |  |  |  |  |  |  |  | 
6 | COC(=O)NC12CCC(n3cc(-c4ccc(Cl)c(N)c4)c4c(N)ncnc43)(CC1)CC2 | 2.6 | 58 | 160 | 0.0042 | 1.4 | 1.1 | 54 | 5.6 | 9.5 | 22 | 10 | IC50 [6]: 3 µM; AUC at 336 h [21]: 106 µM·h; Activity [22]: Non-Toxic; fCmax [23]: 0.031 µM; Activity [12]: Non-Toxic; Activity [24]: Active; fAUC [25]: 0.45 µM·h; Cmax [26]: 7.4 µM; IC50 [20]: 9.9 µM
7 | CC(=O)N1CCN([C@H]2C[C@@H](n3cc(-c4ccc(Cl)c(N)c4)c4c(N)ncnc43)C2)CC1 | 4.6 | 48 | 12 | 0.356 | 15 | 1.3 | 5 | 5.1 | 3.8 | 2.4 | 1.2 | fCmax [27]: 6.8 µM; Activity [28]: Active; Activity [29]: Non-Toxic; Activity [30]: Non-Toxic; AUC at 336 h [31]: 115 µM·h; fAUC [32]: 41 µM·h; Cmax [33]: 19 µM; inhibition [34]: Active
8 | CC(=O)N1CCN([C@H]2C[C@@H](n3cc(-c4cc(O)ccc4F)c4c(N)ncnc43)C2)CC1 |  |  |  |  |  |  |  |  |  |  |  | IC50 [2]: 4.2 µM; clearance [35]: 65 mL/min/kg; IC50 [36]: 0.00054 µM; Cmax [37]: 6.4 µM; AUC [38]: 2 µM·h; half-life [39]: 1.6 h; bioavailability [40]: 4%; Vd [41]: 1.4 L/kg; AUC [42]: 0.3 µM·h; half-life [43]: 1.3 h; Cmax [44]: 0.2 µM
9 | COC(=O)NC12CCC(n3cc(-c4cc(N)c(Cl)cc4F)c4c(N)ncnc43)(CC1)CC2 | 4.1 | 78 | 160 | 0.0065 | 1.8 | 2.4 | 40 | 3.5 | 7.9 | 19 | 16 | Activity [45]: Active; IC50 [6]: 6 µM; Activity [46]: Active; fAUC [7]: 0.9 µM·h; Activity [8]: Active; Activity [22]: Non-Toxic; inhibition [47]: Active; Cmax [14]: 8.4 µM; fCmax [18]: 0.055 µM; AUC at 336 h [19]: 136 µM·h; IC50 [20]: > 30 µM
10 | CC(=O)N1CCN([C@H]2C[C@@H](n3cc(-c4ccc(O)cc4)c4c(N)ncnc43)C2)CC1 | > 10 |  |  |  |  |  |  |  |  |  |  | 
11 | CC(=O)N1CCN([C@H]2C[C@@H](n3cc(-c4ccccc4O)c4c(N)ncnc43)C2)CC1 | > 10 |  |  |  |  |  |  |  |  |  |  | 
12 | COc1cc(-c2cn([C@H]3C[C@@H](N4CCN(C(C)=O)CC4)C3)c3ncnc(N)c23)ccc1Cl | > 10 |  |  |  |  |  |  |  |  |  |  | 
